Consider 16 compounds from the supplement of paper PMC11281043.

Common to all, as to settings: exposure: 6-8 hpf to 5 dpf, scored at 6 dpf
Assay [1] relates to Danio rerio embryo/larva. Briefly: BMC any abnormality; max tested concentration (log10 uM): 2; higher = less potent. The procedure:
(§1)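 Zebrafish embryos (with chorion) were exposed from 6-8 hpf to each PFAS (8-point half-log series, top concentration up to 100 uM, 0.4% DMSO, sealed plates, 26 C; n = 6 embryos per concentration), rinsed at 5 dpf and scored at 6 dpf by two blinded observers for mortality, hatching and malformations. Endpoint scores are the % of living larvae affected (dead larvae excluded; […]). Curves were fitted with tcpl (cutoff 16%), and the BMC is the concentration at a benchmark response of 21.6%.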

The test system of assay [2] is Danio rerio embryo/larva. Briefly: max % larvae dead across tested concentrations; max tested concentration (log10 uM): 2; higher = more toxic; extreme values may be limits of the assay.
The test system of assay [3] is Danio rerio embryo/larva. Briefly: BMC mortality; max tested concentration (log10 uM): 2; higher = less potent. The procedure:
as §1

For assay [4], the system named is Danio rerio embryo/larva. The assay is described as follows: BMC swim bladder non-inflation; higher = less potent. How it is done: as §1
Assay [5] has as its system Danio rerio embryo/larva. Briefly: max % larvae unhatched across tested concentrations; max tested concentration (log10 uM): 2; higher = more toxic.
For assay [6], the system named is Danio rerio embryo/larva. Briefly: max % larvae with any abnormality across tested concentrations; max tested concentration (log10 uM): 2; higher = more toxic; extreme values may be limits of the assay.
Assay [7] concerns Danio rerio embryo/larva. The assay is described as follows: BMC edema; higher = less potent. The procedure: as §1
In assay [8] the test system is Danio rerio embryo/larva. Briefly: BMC abnormal position; higher = less potent. How it is done:
as §1

Assay [9] relates to Danio rerio embryo/larva. Briefly: BMC craniofacial defects; higher = less potent. How it is done: as §1
The subject of assay [10] is Danio rerio embryo/larva. The assay is described as follows: max % larvae unhatched across tested concentrations; max tested concentration (log10 uM): 1.60206; higher = more toxic.
For assay [11], the system named is Danio rerio embryo/larva. Briefly: max % larvae dead across tested concentrations; max tested concentration (log10 uM): 1.60206; higher = more toxic; extreme values may be limits of the assay.
For assay [12], the system named is Danio rerio embryo/larva. Briefly: max % larvae with any abnormality across tested concentrations; max tested concentration (log10 uM): 1.60206; higher = more toxic; extreme values may be limits of the assay.
The mark [13] stands for this setting: max tested concentration (log10 uM): 1.
Setting [14] is: max tested concentration (log10 uM): 0.477121.
The mark [15] stands for this setting: max tested concentration (log10 uM): 2.

`OCC(F)(F)C(F)(F)C(F)(F)C(F)(F)C(F)(F)C(F)(F)C(F)(F)C(F)(F)CO` [1H,1H,10H,10H-Perfluorodecane-1,10-diol] yielded a BMC any abnormality with Danio rerio embryo/larva [1] of 4.08 µM. Besides, in the assay on Danio rerio embryo/larva [2], the “max % larvae dead across tested concentrations” value was determined as 100%. The BMC mortality with Danio rerio embryo/larva [3] is 19.5 µM. In addition, the “BMC swim bladder non-inflation” value in the assay on Danio rerio embryo/larva [4] (setting [13]) was found to be 3.47 µM. Also, in the assay on Danio rerio embryo/larva [5], the “max % larvae unhatched across tested concentrations” value turned out to be 0%. The same compound registered a max % larvae in the assay with Danio rerio embryo/larva [6] of 100%.

With `O=C(O)C(F)(F)C(F)(F)C(F)(F)C(F)(F)C(F)(F)C(F)(F)C(F)(F)C(F)(F)C(F)(F)C(F)(F)F` [Perfluoroundecanoic acid], the BMC any abnormality in the assay on Danio rerio embryo/larva [1] was found to be 2.94 µM. Also, the “max % larvae dead across tested concentrations” value with Danio rerio embryo/larva [2] turned out to be 100%. In the assay on Danio rerio embryo/larva [3], the BMC mortality came out at 14.5 µM. Also, the BMC edema with Danio rerio embryo/larva [7] (setting [14]) was 2.74 µM. Moreover, the “max % larvae unhatched across tested concentrations” value in the assay with Danio rerio embryo/larva [5] was found to be 0%. Also, the max % larvae with Danio rerio embryo/larva [6] is 100%.

On to `O=C(O)C(F)(F)C(F)(F)C(F)(F)C(F)(F)C(F)(F)C(F)(F)C(F)(F)C(F)(F)F` [Perfluorononanoic acid], for which the BMC any abnormality with Danio rerio embryo/larva [1] turned out to be 25.5 µM. Moreover, the “max % larvae dead across tested concentrations” value in the assay on Danio rerio embryo/larva [2] was 75%. Also, in the assay on Danio rerio embryo/larva [3], the BMC mortality was found to be 73.9 µM. Further, the BMC edema in the assay with Danio rerio embryo/larva [7] (setting [15]) came out at 28 µM. Further, the “BMC swim bladder non-inflation” value in the assay on Danio rerio embryo/larva [4] (setting [15]) was 25.5 µM. Further, in the assay with Danio rerio embryo/larva [5], the “max % larvae unhatched across tested concentrations” value was determined as 0%. Moreover, the max % larvae in the assay on Danio rerio embryo/larva [6] came to 100%. For the same compound, the BMC abnormal position in the assay with Danio rerio embryo/larva [8] (setting [15]) was 87.8 µM.

In the case of `O=C(O)C(F)(F)OC(F)(F)C(F)(F)OC(F)(F)C(F)(F)C(F)(F)C(F)(F)F` [Perfluoro-3,6-dioxadecanoic acid], the “max % larvae dead across tested concentrations” value in the assay on Danio rerio embryo/larva [2] amounted to 66.7%. In the assay on Danio rerio embryo/larva [3], the BMC mortality is 75.3 µM. Besides, in the assay with Danio rerio embryo/larva [5], the “max % larvae unhatched across tested concentrations” value came to 0%. In the assay with Danio rerio embryo/larva [6], this compound came in with a max % larvae of 91.7%.

`NS(=O)(=O)C(F)(F)C(F)(F)C(F)(F)C(F)(F)C(F)(F)C(F)(F)F` [Perfluorohexanesulfonamide] registered a BMC any abnormality in the assay with Danio rerio embryo/larva [1] of 1.45 µM. Further, the BMC edema in the assay on Danio rerio embryo/larva [7] (setting [14]) worked out at 1.66 µM. Moreover, in the assay on Danio rerio embryo/larva [4] (setting [14]), the “BMC swim bladder non-inflation” value is 2.28 µM. For the same compound, the “max % larvae unhatched across tested concentrations” value in the assay with Danio rerio embryo/larva [5] came to 0%. The same compound displayed a max % larvae with Danio rerio embryo/larva [6] of 100%. This compound came in with a BMC abnormal position with Danio rerio embryo/larva [8] (setting [14]) of 2.67 µM. The compound further showed a BMC craniofacial defects in the assay with Danio rerio embryo/larva [9] (setting [14]) of 2.4 µM.

`OCCC(F)(F)C(F)(F)C(F)(F)C(F)(F)C(F)(F)C(F)(F)C(F)(F)C(F)(F)F` [2-(Perfluorooctyl)ethanol]: in the assay on Danio rerio embryo/larva [2], the “max % larvae dead across tested concentrations” value was found to be 25%. Further, the BMC mortality with Danio rerio embryo/larva [3] came out at 89 µM. Besides, the “max % larvae unhatched across tested concentrations” value in the assay on Danio rerio embryo/larva [5] turned out to be 0%. For the same compound, the max % larvae in the assay on Danio rerio embryo/larva [6] worked out at 58.3%.

In the case of `O=C(O)C(F)(F)OC(F)(F)C(F)(F)OC(F)(F)C(F)(F)OC(F)(F)C(F)(F)C(F)(F)C(F)(F)F` [Perfluoro-3,6,9-trioxatridecanoic acid], in the assay with Danio rerio embryo/larva [1], the BMC any abnormality came to 2.47 µM. Moreover, in the assay on Danio rerio embryo/larva [2], the “max % larvae dead across tested concentrations” value turned out to be 100%. This compound registered a BMC mortality in the assay on Danio rerio embryo/larva [3] of 7.79 µM. In the assay with Danio rerio embryo/larva [7] (setting [13]), this compound gave a BMC edema of 3.13 µM. In the assay on Danio rerio embryo/larva [4] (setting [13]), the “BMC swim bladder non-inflation” value stood at 1.3 µM. For the same compound, the “max % larvae unhatched across tested concentrations” value in the assay with Danio rerio embryo/larva [5] was 0%. Besides, in the assay with Danio rerio embryo/larva [6], the max % larvae was 100%. Moreover, the BMC abnormal position with Danio rerio embryo/larva [8] (setting [13]) is 8.04 µM.

In turn, `CC(C)(C)C(=O)CC(=O)C(F)(F)C(F)(F)C(F)(F)F` [(Heptafluorobutanoyl)pivaloylmethane] had a BMC any abnormality in the assay with Danio rerio embryo/larva [1] of 23.4 µM. In addition, the “max % larvae dead across tested concentrations” value in the assay on Danio rerio embryo/larva [2] was 58.3%. This compound also had a BMC mortality in the assay with Danio rerio embryo/larva [3] of 31.2 µM. In the assay on Danio rerio embryo/larva [7] (setting [15]), this compound had a BMC edema of 25.6 µM. Moreover, the “BMC swim bladder non-inflation” value with Danio rerio embryo/larva [4] (setting [15]) was determined as 23 µM. The “max % larvae unhatched across tested concentrations” value in the assay on Danio rerio embryo/larva [5] was found to be 0%. Besides, in the assay with Danio rerio embryo/larva [6], the max % larvae was 100%. In addition, the BMC abnormal position in the assay with Danio rerio embryo/larva [8] (setting [15]) turned out to be 33.1 µM. This compound also showed a BMC craniofacial defects in the assay on Danio rerio embryo/larva [9] (setting [15]) of 26.6 µM.

Regarding `O=P(O)(O)CCC(F)(F)C(F)(F)C(F)(F)C(F)(F)C(F)(F)C(F)(F)C(F)(F)C(F)(F)F` [((Perfluorooctyl)ethyl)phosphonic acid], the BMC any abnormality in the assay with Danio rerio embryo/larva [1] is 0.578 µM. Besides, the “max % larvae dead across tested concentrations” value in the assay with Danio rerio embryo/larva [2] stood at 100%. Moreover, the BMC mortality with Danio rerio embryo/larva [3] was found to be 10.4 µM. In the assay with Danio rerio embryo/larva [7] (setting [15]), this compound displayed a BMC edema of 1.37 µM. Further, in the assay on Danio rerio embryo/larva [4] (setting [15]), the “BMC swim bladder non-inflation” value is 0.92 µM. The “max % larvae unhatched across tested concentrations” value with Danio rerio embryo/larva [5] was determined as 0%. This compound also had a max % larvae with Danio rerio embryo/larva [6] of 100%. For the same compound, in the assay with Danio rerio embryo/larva [8] (setting [15]), the BMC abnormal position was determined as 63.6 µM.

`CO[Si](C)(CCC(F)(F)C(F)(F)C(F)(F)C(F)(F)C(F)(F)C(F)(F)F)OC` [Dimethoxymethyl((perfluorohexyl)ethyl)silane]: the “max % larvae unhatched across tested concentrations” value with Danio rerio embryo/larva [10] amounted to 0%. Besides, the “max % larvae dead across tested concentrations” value with Danio rerio embryo/larva [11] was 0%. Further, in the assay with Danio rerio embryo/larva [12], the max % larvae stood at 0%.

Consider `C=CC(=O)OCC(F)(F)C(F)(F)C(F)(F)COC(=O)C=C` [1H,1H,5H,5H-Perfluoro-1,5-pentanediol diacrylate], for which the BMC any abnormality in the assay with Danio rerio embryo/larva [1] turned out to be 7.62 µM. The “max % larvae dead across tested concentrations” value in the assay with Danio rerio embryo/larva [2] turned out to be 100%. Further, the BMC mortality with Danio rerio embryo/larva [3] is 8.77 µM. Moreover, the “max % larvae unhatched across tested concentrations” value in the assay on Danio rerio embryo/larva [5] turned out to be 0%. This compound also displayed a max % larvae with Danio rerio embryo/larva [6] of 100%.

Regarding `O=C(O)C(F)(F)C(F)(F)C(F)(F)C(F)(F)C(F)(F)C(F)(F)C(F)(F)C(F)(F)C(F)(F)C(F)F` [11-H-Perfluoroundecanoic acid], in the assay with Danio rerio embryo/larva [1], the BMC any abnormality stood at 12.9 µM. Further, the “max % larvae dead across tested concentrations” value in the assay with Danio rerio embryo/larva [2] amounted to 100%. The BMC mortality with Danio rerio embryo/larva [3] amounted to 11.2 µM. Besides, the BMC edema in the assay with Danio rerio embryo/larva [7] (max tested concentration (log10 uM): 1.47712) was found to be 12.6 µM. Further, the “max % larvae unhatched across tested concentrations” value in the assay on Danio rerio embryo/larva [5] worked out at 0%. Besides, the max % larvae in the assay with Danio rerio embryo/larva [6] was 100%.

As to `C[N+](C)(C)CCCNS(=O)(=O)C(F)(F)C(F)(F)C(F)(F)C(F)(F)C(F)(F)C(F)(F)C(F)(F)C(F)(F)F`, the BMC any abnormality with Danio rerio embryo/larva [1] turned out to be 22.3 µM. Besides, the “max % larvae dead across tested concentrations” value in the assay with Danio rerio embryo/larva [2] came out at 100%. In addition, the BMC mortality with Danio rerio embryo/larva [3] was determined as 19.8 µM. In addition, the “max % larvae unhatched across tested concentrations” value in the assay on Danio rerio embryo/larva [5] worked out at 0%. Besides, the max % larvae in the assay on Danio rerio embryo/larva [6] worked out at 100%.

Consider `O=S(=O)(O)C(F)(F)C(F)(F)C(F)(F)C(F)(F)C(F)(F)C(F)(F)C(F)(F)C(F)(F)F` [Perfluorooctanesulfonic acid], for which, in the assay with Danio rerio embryo/larva [1], the BMC any abnormality was found to be 7.48 µM. In addition, the “max % larvae dead across tested concentrations” value in the assay with Danio rerio embryo/larva [2] amounted to 100%. This compound also had a BMC mortality in the assay with Danio rerio embryo/larva [3] of 9.38 µM. In addition, the BMC edema with Danio rerio embryo/larva [7] (setting [13]) amounted to 8.58 µM. Further, the “BMC swim bladder non-inflation” value with Danio rerio embryo/larva [4] (setting [13]) was found to be 8.02 µM. The “max % larvae unhatched across tested concentrations” value in the assay on Danio rerio embryo/larva [5] was found to be 0%. The same compound gave a max % larvae with Danio rerio embryo/larva [6] of 100%. The compound also returned a BMC abnormal position with Danio rerio embryo/larva [8] (setting [13]) of 9.2 µM. The BMC craniofacial defects with Danio rerio embryo/larva [9] (setting [13]) stood at 8.4 µM.

For the compound `FC(F)(F)C(F)(F)C(F)(F)C(F)(F)C(F)(F)C(F)(F)C(F)(F)CCI` [1-Iodo-1H,1H,2H,2H-perfluorononane], the “max % larvae unhatched across tested concentrations” value with Danio rerio embryo/larva [10] turned out to be 0%. For the same compound, the “max % larvae dead across tested concentrations” value with Danio rerio embryo/larva [11] was 16.7%. The max % larvae with Danio rerio embryo/larva [12] amounted to 16.7%.

Take `OCCCCC(F)(F)C(F)(F)C(F)(F)C(F)(F)F` [4:4 Fluorotelomer alcohol]: the BMC any abnormality with Danio rerio embryo/larva [1] came to 25.5 µM. The “max % larvae dead across tested concentrations” value in the assay with Danio rerio embryo/larva [2] is 41.7%. This compound had a BMC mortality in the assay with Danio rerio embryo/larva [3] of 86.5 µM. This compound returned a BMC edema in the assay on Danio rerio embryo/larva [7] (setting [15]) of 25.8 µM. The “BMC swim bladder non-inflation” value with Danio rerio embryo/larva [4] (setting [15]) was determined as 27.1 µM. Besides, the “max % larvae unhatched across tested concentrations” value with Danio rerio embryo/larva [5] stood at 0%. The compound also displayed a max % larvae in the assay with Danio rerio embryo/larva [6] of 97.9%. This compound registered a BMC craniofacial defects with Danio rerio embryo/larva [9] (setting [15]) of 34.7 µM.
